From patent US9238021B2, “Method of producing a cationic liposomal preparation comprising a lipophilic compound” (MEDIGENE AG, priority 2002, dated 2016)
≈ marks a conversion by molar mass, not a printed value.

Tests used:
[1] = murine plasma; cited from earlier work
[2] = human plasma; cited from earlier work
[3] = Solubility of docetaxel in trehalose or water; type: physicochemical

Row | SMILES | in vitro half life [1] | half life [2] | solubility [3]
1 | C/C1=C/C[C@@H](/C(C)=C/c2csc(C)n2)OC(=O)C[C@H](O)C(C)(C)C(=O)[C@H](C)[C@@H](O)[C@@H](C)CCC1 [desoxy-epothilone B] | ~20 min | around 3 h | –
2 | CC(=O)O[C@@]12CO[C@@H]1C[C@H](O)[C@@]1(C)C(=O)[C@H](O)C3=C(C)[C@@H](OC(=O)[C@H](O)[C@@H](NC(=O)OC(C)(C)C)c4ccccc4)C[C@@](O)([C@@H](OC(=O)c4ccccc4)[C@H]21)C3(C)C [docetaxel] | – | – | ~20 µM (≈ 16.2 µg/mL)
